Source: patent US8501713B2, “Drug combinations for the treatment of duchenne muscular dystrophy” (Summit Corporation PLC, priority 2007, dated 2013)

Tested on: Utrophin A promoter linked to a luciferase reporter gene
Assay: Luciferase reporter assay (murine H2K cells)
Format: cell-based
Details: luciferase reporter assay in murine H2K cells; classified relative to control
Summary of the method: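 Compound at 10 μM final was applied for 48 hrs to plated H2K mdx myoblasts (33° C, 10% CO2, interferon-containing medium) bearing a luciferase gene under the utrophin A promoter. Luminescence from lysed cells served as read-out.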

| Compound | Activity |
| --- | --- |
| Cc1ccc(S(=O)(=O)Nc2ccc3[nH]c(-c4ccco4)nc3c2)cc1 [Example 536] | + (Up to 200% relative to control) |
| COc1ccc(-c2nc3cc([N+](=O)[O-])ccc3o2)cc1OC [Example 537] | + (Up to 200% relative to control) |
| Cc1ccc2nc(-c3cccc(NC(=O)c4ccco4)c3)[nH]c2c1 [Example 538] | + (Up to 200% relative to control) |
| Cc1cc(-c2nc3cc(Cl)ccc3o2)ccc1[N+](=O)[O-] [Example 539] | + (Up to 200% relative to control) |
| O=C(Nc1ccc(-c2nc3ccccc3[nH]2)cc1)c1ccc2c(c1)OCO2 [Example 540] | + (Up to 200% relative to control) |
| Cn1c(-c2ccc(Cl)cc2)nc2ccccc21 [Example 541] | ++ (Between 201% and 300% relative to control) |
| COc1ccc(-c2nc3ccccc3s2)cc1NC(C)=O [Example 542] | ++ (Between 201% and 300% relative to control) |
| CSc1ccc(-c2nc3ccccc3[nH]2)cc1 [Example 543] | ++ (Between 201% and 300% relative to control) |
| Nc1ccc(-c2nc3ccc(N)cc3o2)cc1 [Example 544] | ++ (Between 201% and 300% relative to control) |
| Cc1ccc2nc(-c3ccc(NC(=O)c4ccccc4C(=O)O)cc3)sc2c1 [Example 545] | + (Up to 200% relative to control) |
| C(=C\c1nc2ccccc2[nH]1)/c1ccccc1 [Example 547] | +++ (Between 301% and 400% relative to control) |
| Cc1ccc(C)c(OCc2nc3ccccc3[nH]2)c1 [Example 548] | + (Up to 200% relative to control) |
| CCOc1ccc(-c2nc3cc(N)ccc3o2)cc1 [Example 549] | + (Up to 200% relative to control) |
| Nc1ccc(O)c(-c2nc3cc(N)ccc3s2)c1 [Example 550] | + (Up to 200% relative to control) |
| CCc1ccc2oc(-c3cc(N)ccc3O)nc2c1 [Example 551] | + (Up to 200% relative to control) |
| c1ccc(NNc2nc3ccccc3s2)cc1 [Example 552] | + (Up to 200% relative to control) |
| CCc1ccc2oc(-c3ccc(N)cc3)nc2c1 [Example 553] | ++++ (Above 401% relative to control) |
| Cc1ccc2[nH]c(-c3ccccc3N)nc2c1 [Example 554] | +++ (Between 301% and 400% relative to control) |
| CCOc1ccc2nc(NC(=O)c3ccccc3)sc2c1 [Example 555] | + (Up to 200% relative to control) |

| Compound | Activity |
| --- | --- |
| CC(=O)Nc1ccc(-c2nc3cc(Cl)c(NC(C)=O)cc3[nH]2)cc1 [Example 556] | + (Up to 200% relative to control) |
| Nc1ccc(Oc2ccc(-c3nc4ccccc4[nH]3)cc2)cc1 [Example 557] | ++++ (Above 401% relative to control) |
| c1ccc(-c2ccc(-c3nc4ccccc4[nH]3)cc2)cc1 [Example 558] | + (Up to 200% relative to control) |
| Cc1cc2nc(-c3cc(N)ccc3O)oc2cc1C [Example 559] | +++ (Between 301% and 400% relative to control) |
| Nc1ccc2[nH]c(-c3ccc(Cl)cc3)nc2c1 [Example 560] | +++ (Between 301% and 400% relative to control) |
| c1csc(-c2nc3cc4ccccc4cc3[nH]2)c1 [Example 561] | +++ (Between 301% and 400% relative to control) |
| O=C(Nc1ccc(-c2nc3ccccc3[nH]2)cc1)c1ccco1 [Example 562] | +++ (Between 301% and 400% relative to control) |
| CCSc1nc2ccc(N)cc2s1 [Example 563] | ++ (Between 201% and 300% relative to control) |
| Cc1ccc2nc(-c3ccc(NC(=O)C(C)C)cc3)oc2c1 [Example 564] | + (Up to 200% relative to control) |
| CC(C)c1ccc2oc(-c3ccc(N)cc3O)nc2c1 [Example 565] | +++ (Between 301% and 400% relative to control) |
| Cc1c(N)cccc1-c1nc2cc(Cl)ccc2o1 [Example 566] | + (Up to 200% relative to control) |
| Cc1ccc(C(=O)Nc2nc3ccccc3s2)c(Cl)c1 [Example 567] | + (Up to 200% relative to control) |
| Cc1ccc(-c2nc3ccccc3[nH]2)cc1NC(=O)C(F)(F)F [Example 568] | +++ (Between 301% and 400% relative to control) |
| Nc1ccc2oc(-c3ccccc3F)nc2c1 [Example 569] | +++ (Between 301% and 400% relative to control) |
| CCCCc1nc2cc(S(=O)(=O)CC)ccc2o1 [Example 570] | + (Up to 200% relative to control) |
| CCCc1nc2cc(S(=O)(=O)CC)ccc2o1 [Example 571] | + (Up to 200% relative to control) |
| CCc1nc2cc(S(=O)(=O)CC)ccc2o1 [Example 572] | + (Up to 200% relative to control) |
| CCS(=O)(=O)c1ccc2ocnc2c1 [Example 573] | + (Up to 200% relative to control) |
| CCS(=O)(=O)c1ccc2oc(S)nc2c1 [Example 574] | + (Up to 200% relative to control) |

| Compound | Activity |
| --- | --- |
| CC(=O)Nc1cccc(-c2ccc3oc(-c4ccc(Cl)cc4)nc3c2)c1 [Example 575] | ++++ (Above 401% relative to control) |
| CCNC(=O)Nc1ccc2[nH]c(C(C)(C)C)cc2c1 [Example 576] | + (Up to 200% relative to control) |
| Nc1ccc2oc(-c3cccc4ccccc34)nc2c1 [Example 577] | + (Up to 200% relative to control) |
| CCCS(=O)(=O)c1ccc2oc(-c3ccc(Cl)cc3)nc2c1 [Example 578] | + (Up to 200% relative to control) |
| Oc1ccc2nc(-c3ccc(Cl)cc3)oc2c1 [Example 579] | ++++ (Above 401% relative to control) |
| Cc1ccc2[nH]c(-c3ccc(NC(=O)c4ccco4)cc3)nc2c1 [Example 580] | +++ (Between 301% and 400% relative to control) |
| O=C(c1ccccc1)c1ccc2nc(-c3ccccc3)[nH]c2c1 [Example 581] | + (Up to 200% relative to control) |
| COc1ccc(-c2nc3ccccc3s2)cc1 [Example 582] | ++++ (Above 401% relative to control) |
| COc1ccc(-c2nc3ccccc3o2)cc1 [Example 583] | +++ (Between 301% and 400% relative to control) |
| COc1ccc(-c2nc3ccc([N+](=O)[O-])cc3o2)cc1 [Example 584] | +++ (Between 301% and 400% relative to control) |
| O=C(Nc1ccc(-c2nc3ccccc3[nH]2)cc1)c1cccs1 [Example 585] | ++++ (Above 401% relative to control) |
| COc1ccc(-c2nc3cc([N+](=O)[O-])ccc3[nH]2)cc1 [Example 586] | ++ (Between 201% and 300% relative to control) |
| O=C(Nc1ccc(-c2nc3ccccc3[nH]2)cc1)C1CCCO1 (centres unmarked) [Example 587] | +++ (Between 301% and 400% relative to control) |
| Cc1ccc(-c2nc3ccccc3n2C)cc1 [Example 588] | +++ (Between 301% and 400% relative to control) |
| CC(=O)Nc1ccc(-c2nc3ccccc3o2)cc1 [Example 589] | +++ (Between 301% and 400% relative to control) |
| Cc1cc(C)c2nc(-c3ccc(N)cc3)oc2c1 [Example 590] | ++++ (Above 401% relative to control) |
| CC(=O)Nc1ccc(-c2nc3ccccc3[nH]2)cc1 [Example 591] | +++ (Between 301% and 400% relative to control) |
| Nc1cc(-c2nc3ccccc3s2)ccc1Cl [Example 592] | ++++ (Above 401% relative to control) |
